Our source for the AC50 values is US20250171438A1 (Agios Pharmaceuticals, Inc., priority 2022, published 2025).

Structures are written as SMILES. Some results are limits rather than exact numbers.

In the assay the target is T1, human PAH with the R408W mutation (Homo sapiens, UniProt P00439, R408W).
T1 construct: expressed in transfected cells
T1 sequence (P00439 1-452 R408W): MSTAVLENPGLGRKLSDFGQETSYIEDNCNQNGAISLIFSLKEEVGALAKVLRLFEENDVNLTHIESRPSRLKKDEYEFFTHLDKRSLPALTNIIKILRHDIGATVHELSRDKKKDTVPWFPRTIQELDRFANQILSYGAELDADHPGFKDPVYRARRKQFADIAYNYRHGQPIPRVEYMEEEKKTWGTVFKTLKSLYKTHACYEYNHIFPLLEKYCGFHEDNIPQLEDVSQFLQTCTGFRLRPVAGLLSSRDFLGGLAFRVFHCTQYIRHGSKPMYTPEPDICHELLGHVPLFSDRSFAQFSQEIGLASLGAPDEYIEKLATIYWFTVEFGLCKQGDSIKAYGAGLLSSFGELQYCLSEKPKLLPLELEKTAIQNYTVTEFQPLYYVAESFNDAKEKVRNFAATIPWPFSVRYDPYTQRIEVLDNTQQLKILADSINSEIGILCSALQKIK
As to the kind of experiment: Cell Based Phenylalanine Flux Assay. Conditions: A375 cells expressing human R408W PAH; 24 hrs with compound; 13C-Tyrosine by LC-MS; average where tested multiple times; read-out: AC50.

The AC50 is the concentration giving half of the maximal activity seen. In the case of `Cc1nnc(CCC(=O)N2CCc3[nH]cnc3C2c2nc3ccccc3s2)o1` (stereo not drawn) [listing 1 of 2 here], the AC50 is greater than 5 µM.
Consider `Cn1cc(-c2cnc(CC(=O)N3CCc4[nH]cnc4C3c3nc4ccccc4s3)s2)cn1` (stereo not drawn) [listing 1 of 2 here], for which the AC50 is greater than 5 µM.
Under `O=C(Cc1ncc(-c2ccccc2)s1)N1CCc2[nH]cnc2C1c1nc2ccccc2s1` (stereo not drawn) [listing 1 of 2 here] stands greater than 5 µM; under `O=C(CCc1nnc(C(F)F)o1)N1CCc2[nH]cnc2C1c1nc2ccccc2s1` (stereo not drawn) [listing 1 of 2 here], greater than 5 µM; under `O=C(Cc1nccs1)N1CCc2[nH]cnc2C1c1nc2cccc(F)c2s1` (stereo not drawn) [listing 1 of 2 here], greater than 5 µM.
For `O=C(c1cnn(CC(F)(F)F)c1)N1CCc2[nH]cnc2C1c1nc2ccccc2s1` (stereo not drawn) [listing 1 of 2 here], the AC50 is greater than 5 µM.
Next, `O=C(c1nc2ccccc2s1)N1CCc2[nH]cnc2C1c1nc2cccc(F)c2s1` (stereo not drawn) [listing 1 of 2 here]: greater than 5 µM; `Cc1nc(-c2ccccn2)c(C(=O)N2CCc3[nH]cnc3C2c2nc3ccccc3s2)o1` (stereo not drawn) [listing 1 of 2 here]: greater than 5 µM; `O=C(c1oc(-c2ccccc2)nc1-c1ccccc1)N1CCc2[nH]cnc2C1c1nc2ccccc2s1` (stereo not drawn) [listing 1 of 2 here]: greater than 5 µM.
For `Cn1cc(-c2cccc(C(=O)N3CCc4[nH]cnc4C3c3nc4ccccc4s3)c2)cn1` (stereo not drawn), the AC50 was greater than 5 µM.
Under `O=C(c1nc(C(F)(F)F)co1)N1CCc2[nH]cnc2C1c1nc2ccccc2s1` (stereo not drawn) stands 1 to 5 µM; under `O=C(c1nc(Cl)cs1)N1CCc2[nH]cnc2C1c1nc2c(F)cccc2s1` (stereo not drawn) [listing 1 of 2 here], greater than 5 µM; under `Cc1nc(-c2ccccn2)sc1C(=O)N1CCc2[nH]cnc2C1c1nc2ccccc2s1` (stereo not drawn) [listing 1 of 2 here], greater than 5 µM.
Under `O=C(c1cnn2cc(CCc3ccccc3)ccc12)N1CCc2[nH]cnc2C1c1nc2ccccc2s1` (stereo not drawn) [listing 1 of 2 here] stands greater than 5 µM; under `O=C(c1cnn2cc(N3CCCC3)ccc12)N1CCc2[nH]cnc2C1c1nc2ccccc2s1` (stereo not drawn) [listing 1 of 2 here], greater than 5 µM.
Consider `O=C(c1cnn2cc(Cl)ccc12)N1CCc2[nH]cnc2C1c1nc2ccc(F)cc2s1` (stereo not drawn) [listing 1 of 2 here], for which the AC50 is greater than 5 µM.
Under `O=C(c1cnn2cc(Cl)ccc12)N1CCc2nc[nH]c2C1c1nc2cc(F)ccc2s1` (stereo not drawn) [listing 1 of 2 here] stands greater than 5 µM; under `O=C(C1CC1F)N1CCc2[nH]cnc2C1c1nc2ccccc2s1` (stereo not drawn) [listing 1 of 4 here], greater than 5 µM; under `O=C(C1CC1F)N1CCc2[nH]cnc2C1c1nc2ccccc2s1` (stereo not drawn) [listing 2 of 4 here], greater than 5 µM.
Under `O=C(N1CCC(c2ccccc2)C1)N1CCc2[nH]cnc2C1c1nc2ccccc2s1` (stereo not drawn) [listing 1 of 3 here] stands greater than 5 µM; under `O=C(N1CCC(c2ccccc2)C1)N1CCc2[nH]cnc2C1c1nc2ccccc2s1` (stereo not drawn) [listing 2 of 3 here], greater than 5 µM; under `c1ccc2sc(C3c4nc[nH]c4CCN3CC3CC3)nc2c1` (stereo not drawn), greater than 5 µM.
Next, `O=C(Nc1ccc(F)cc1)N1CCc2[nH]cnc2C1c1nc2ccccc2s1` (stereo not drawn) [listing 1 of 2 here]: greater than 5 µM.
As to `Cc1ncc(C(=O)N2CCc3[nH]cnc3C2c2nc3c(F)cccc3s2)o1` (stereo not drawn), the AC50 is greater than 5 µM.
With `Cc1nc(-c2ccccn2)c(C(=O)N2CCc3[nH]cnc3C2c2nc3c(F)cccc3s2)o1` (stereo not drawn) [listing 1 of 2 here], the AC50 was greater than 5 µM.
As to `O=C(c1ncco1)N1CCc2[nH]cnc2C1c1nc2cc(F)ccc2s1` (stereo not drawn) [listing 1 of 2 here], the AC50 was greater than 5 µM.
Regarding `Cc1nnc(C(=O)N2CCc3[nH]cnc3C2c2nc3cc(F)ccc3s2)s1` (stereo not drawn) [listing 1 of 2 here], the AC50 was greater than 5 µM.
For the compound `O=C(c1ccno1)N1CCc2[nH]cnc2C1c1nc2ccc(F)cc2s1` (stereo not drawn) [listing 1 of 2 here], the AC50 is greater than 5 µM.
As to `O=C(c1ncco1)N1CCc2[nH]cnc2C1c1nc2ccc(F)cc2s1` (stereo not drawn) [listing 1 of 2 here], the AC50 is greater than 5 µM.
For the compound `COc1ccn2ncc(C(=O)N3CCc4[nH]cnc4C3c3nc4ccc(F)cc4s3)c2c1` (stereo not drawn), the AC50 lay in the range of 1 to 5 µM.
Under `Cc1nnc(C(=O)N2CCc3[nH]cnc3C2c2nc3ccc(F)cc3s2)s1` (stereo not drawn) [listing 1 of 2 here] stands greater than 5 µM; under `O=C(c1cnn2cc(F)ccc12)N1CCc2[nH]cnc2C1c1nc2ccc(F)cc2s1` (stereo not drawn) [listing 1 of 2 here], greater than 5 µM.
Take `Cc1ccc2c(C(=O)N3CCc4[nH]cnc4C3c3nc4ccc(F)cc4s3)cnn2c1` (stereo not drawn) [listing 1 of 2 here]: the AC50 is greater than 5 µM.
Turning to `O=C(c1cnn2cc(CO)ccc12)N1CCc2[nH]cnc2C1c1nc2ccccc2s1` (stereo not drawn) [listing 1 of 2 here], the half-maximal activity concentration (AC50) is greater than 5 µM.
For `CNCc1ccc2c(C(=O)N3CCc4[nH]cnc4C3c3nc4ccccc4s3)cnn2c1` (stereo not drawn) [listing 1 of 2 here], the AC50 was greater than 5 µM.
Under `Cc1nnc(CCC(=O)N2CCc3[nH]cnc3C2c2nc3ccccc3s2)o1` (stereo not drawn) [listing 2 of 2 here] stands 1 to 5 µM.
Next, `O=C(CCc1nnc(C(F)F)o1)N1CCc2[nH]cnc2C1c1nc2ccccc2s1` (stereo not drawn) [listing 2 of 2 here]: 1 to 5 µM; `Cc1ncc(CC(=O)N2CCc3[nH]cnc3C2c2nc3ccccc3s2)o1` (stereo not drawn): 1 to 5 µM.
Consider `O=C(Cc1cnco1)N1CCc2[nH]cnc2C1c1nc2ccccc2s1` (stereo not drawn), for which the AC50 lay within 1 to 5 µM.
Next, `Cn1cc(-c2cnc(CC(=O)N3CCc4[nH]cnc4C3c3nc4ccccc4s3)s2)cn1` (stereo not drawn) [listing 2 of 2 here]: 1 to 5 µM.
Next, `Cc1ncoc1CC(=O)N1CCc2[nH]cnc2C1c1nc2ccccc2s1` (stereo not drawn): 1 to 5 µM; `O=C(Cc1ncc(-c2ccccc2)s1)N1CCc2[nH]cnc2C1c1nc2ccccc2s1` (stereo not drawn) [listing 2 of 2 here]: 1 to 5 µM; `O=C(Cc1nc(C(F)(F)F)cs1)N1CCc2[nH]cnc2C1c1nc2cc(F)ccc2s1` (stereo not drawn): 1 to 5 µM.
Regarding `O=C(Cc1nccs1)N1CCc2[nH]cnc2C1c1nc2cccc(F)c2s1` (stereo not drawn) [listing 2 of 2 here], the AC50 was 1 to 5 µM.
Next, `O=C(c1cnn(CC(F)(F)F)c1)N1CCc2[nH]cnc2C1c1nc2ccccc2s1` (stereo not drawn) [listing 2 of 2 here]: 1 to 5 µM; `O=C(c1cnc[nH]1)N1CCc2[nH]cnc2C1c1nc2ccccc2s1` (stereo not drawn): greater than 5 µM; `O=C(c1nsc2ccccc12)N1CCc2[nH]cnc2C1c1nc2ccccc2s1` (stereo not drawn): 1 to 5 µM.
Under `O=C(c1nc2ccccc2s1)N1CCc2[nH]cnc2C1c1nc2cccc(F)c2s1` (stereo not drawn) [listing 2 of 2 here] stands 1 to 5 µM; under `O=C(c1cnc(COc2ccccc2)s1)N1CCc2[nH]cnc2C1c1nc2ccccc2s1` (stereo not drawn), 1 to 5 µM.
Under `Cc1nc(-c2ccccn2)c(C(=O)N2CCc3[nH]cnc3C2c2nc3ccccc3s2)o1` (stereo not drawn) [listing 2 of 2 here] stands 1 to 5 µM; under `O=C(c1oc(-c2ccccc2)nc1-c1ccccc1)N1CCc2[nH]cnc2C1c1nc2ccccc2s1` (stereo not drawn) [listing 2 of 2 here], 1 to 5 µM.
`CC(C)(O)c1nnc(C(=O)N2CCc3[nH]cnc3C2c2nc3c(F)cccc3s2)o1` (stereo not drawn): the AC50 fell in the range of 1 to 5 µM.
Regarding `O=C(c1nc(Cl)cs1)N1CCc2[nH]cnc2C1c1nc2c(F)cccc2s1` (stereo not drawn) [listing 2 of 2 here], the AC50 was 1 to 5 µM.
Regarding `Cc1nc(-c2ccccn2)sc1C(=O)N1CCc2[nH]cnc2C1c1nc2ccccc2s1` (stereo not drawn) [listing 2 of 2 here], the AC50 was 1 to 5 µM.
Consider `O=C(c1ncc(Cl)s1)N1CCc2[nH]cnc2C1c1nc2cccc(F)c2s1` (stereo not drawn), for which the AC50 is 1 to 5 µM.
Turning to `c1ccc2sc(C3c4nc[nH]c4CCN3c3nnc(C4CC4)o3)nc2c1` (stereo not drawn), the AC50 was in the range of 1 to 5 µM.
Under `Cc1nnc(C(=O)N2CCc3[nH]cnc3C2c2nc3ccccc3s2)o1` (stereo not drawn) stands 1 to 5 µM.
Next, `O=C(c1cnn2cc(CCc3ccccc3)ccc12)N1CCc2[nH]cnc2C1c1nc2ccccc2s1` (stereo not drawn) [listing 2 of 2 here]: 1 to 5 µM.
For `O=C(c1cnn2cc(C=Cc3ccccc3)ccc12)N1CCc2[nH]cnc2C1c1nc2ccccc2s1` (stereo not drawn), the AC50 was greater than 5 µM.
Next, `O=C(c1cnn2cc(N3CCCC3)ccc12)N1CCc2[nH]cnc2C1c1nc2ccccc2s1` (stereo not drawn) [listing 2 of 2 here]: 1 to 5 µM; `O=C(c1cnn2cc(Br)ccc12)N1CCc2[nH]cnc2C1c1nc2cc(F)ccc2s1` (stereo not drawn): 1 to 5 µM; `O=C(c1cnn2cc(Cl)ccc12)N1CCc2[nH]cnc2C1c1nc2ccc(F)cc2s1` (stereo not drawn) [listing 2 of 2 here]: 1 to 5 µM.
Consider `O=C(c1cnn2cc(Cl)ccc12)N1CCc2nc[nH]c2C1c1nc2cc(F)ccc2s1` (stereo not drawn) [listing 2 of 2 here], for which the AC50 fell in the range of 1 to 5 µM.
Turning to `O=C(C1CC1F)N1CCc2[nH]cnc2C1c1nc2ccccc2s1` (stereo not drawn) [listing 3 of 4 here], the AC50 lay within 1 to 5 µM.
Under `O=C(C1CC1F)N1CCc2[nH]cnc2C1c1nc2ccccc2s1` (stereo not drawn) [listing 4 of 4 here] stands 1 to 5 µM; under `O=C(N1CCC(c2ccccc2)C1)N1CCc2[nH]cnc2C1c1nc2ccccc2s1` (stereo not drawn) [listing 3 of 3 here], 1 to 5 µM; under `O=C(Nc1ccc(F)cc1)N1CCc2[nH]cnc2C1c1nc2ccccc2s1` (stereo not drawn) [listing 2 of 2 here], 1 to 5 µM.
Take `O=C(c1nccs1)N1CCc2[nH]cnc2C1c1nc2c(Br)cccc2s1` (stereo not drawn): the AC50 lay in the range of 1 to 5 µM.
Turning to `O=C(c1ccno1)N1CCc2nc[nH]c2C1c1nc2c(F)cccc2s1` (stereo not drawn), the AC50 was 1 to 5 µM.
In the case of `Cc1nc(-c2ccccn2)c(C(=O)N2CCc3[nH]cnc3C2c2nc3c(F)cccc3s2)o1` (stereo not drawn) [listing 2 of 2 here], the AC50 lay in the range of 1 to 5 µM.
`O=C(c1n[nH]c2ccccc12)N1CCc2[nH]cnc2C1c1nc2cc(F)ccc2s1` (stereo not drawn): the AC50 is greater than 5 µM.
Turning to `O=C(c1ncco1)N1CCc2[nH]cnc2C1c1nc2cc(F)ccc2s1` (stereo not drawn) [listing 2 of 2 here], the AC50 was 1 to 5 µM.
For the compound `O=C(c1cnco1)N1CCc2[nH]cnc2C1c1nc2cc(F)ccc2s1` (stereo not drawn), the AC50 is 1 to 5 µM.
Next, `Cc1nnc(C(=O)N2CCc3[nH]cnc3C2c2nc3cc(F)ccc3s2)s1` (stereo not drawn) [listing 2 of 2 here]: 1 to 5 µM; `O=C(c1ccno1)N1CCc2[nH]cnc2C1c1nc2ccc(F)cc2s1` (stereo not drawn) [listing 2 of 2 here]: 1 to 5 µM; `O=C(c1ncco1)N1CCc2[nH]cnc2C1c1nc2ccc(F)cc2s1` (stereo not drawn) [listing 2 of 2 here]: 1 to 5 µM.
`Cc1nnc(C(=O)N2CCc3[nH]cnc3C2c2nc3ccc(F)cc3s2)s1` (stereo not drawn) [listing 2 of 2 here]: the AC50 lay in the range of 1 to 5 µM.
For the compound `O=C(c1cnn2cc(F)ccc12)N1CCc2[nH]cnc2C1c1nc2ccc(F)cc2s1` (stereo not drawn) [listing 2 of 2 here], the AC50 lay within 1 to 5 µM.
With `Cc1ccc2c(C(=O)N3CCc4[nH]cnc4C3c3nc4ccc(F)cc4s3)cnn2c1` (stereo not drawn) [listing 2 of 2 here], the AC50 lay within 1 to 5 µM.
Next, `O=C(c1n[nH]c2ccccc12)N1CCc2[nH]cnc2C1c1nc2cccc(F)c2s1` (stereo not drawn): 1 to 5 µM.
Under `O=C(c1ccno1)N1CCc2[nH]cnc2C1c1nc2cccc(F)c2s1` (stereo not drawn) stands 1 to 5 µM.
For `O=C(c1cnn2cc(CO)ccc12)N1CCc2[nH]cnc2C1c1nc2ccccc2s1` (stereo not drawn) [listing 2 of 2 here], the AC50 fell in the range of 1 to 5 µM.
As to `O=C(N1CCC(O)C1)N1CCc2[nH]cnc2C1c1nc2ccccc2s1` (stereo not drawn), the AC50 lay in the range of 1 to 5 µM.
Turning to `CNCc1ccc2c(C(=O)N3CCc4[nH]cnc4C3c3nc4ccccc4s3)cnn2c1` (stereo not drawn) [listing 2 of 2 here], the AC50 was in the range of 1 to 5 µM.
